Like-named read-outs stand apart in the source and are kept apart here.
How the values were obtained:
C2C12 myotubes = settings: for Viability (composite Z-score): normalized score vs mock-treated (DMSO) wells
OXPHOS gene expression = assay type: cell-based, mouse; settings: for GE-HTS (composite Z-score): normalized score vs mock-treated (DMSO) wells
nuOXPHOS transcripts = assay type: cell-based, mouse; settings: for nucOX (composite Z-score): normalized score vs mock-treated (DMSO) wells
[1] = system: cellular dehydrogenase activity; settings: for MTT (composite Z-score): normalized score vs mock-treated (DMSO) wells
mtOXPHOS transcripts = assay type: cell-based, mouse; settings: for mitoOX (composite Z-score): normalized score vs mock-treated (DMSO) wells
[2] = system: mitochondrial membrane potential; assay type: cell-based, mouse; settings: for ΔΨm (composite Z-score): normalized score vs mock-treated (DMSO) wells
cytochrome c = assay type: cell-based, mouse; settings: for cyt c (composite Z-score): normalized score vs mock-treated (DMSO) wells
reactive oxygen species = assay type: cell-based, mouse; settings: for ROS (composite Z-score): normalized score vs mock-treated (DMSO) wells
[3] = composite Z-score vs DMSO, Conc 20 μM
[4] = composite Z-score vs DMSO wells, Conc 20 μM
[5] = 20 μM, composite Z-score vs DMSO
[6] = 13.86 μM, composite Z-score vs DMSO

Structure (SMILES): C=CC1=C(C)/C(=C/c2[nH]c(Cc3[nH]c(/C=C4\NC(=O)C(C)=C4C=C)c(C)c3CCC(=O)O)c(CCC(=O)O)c2C)NC1=O [bilirubin]
- Viability (composite Z-score) (C2C12 myotubes; Conc 20 μM): −0.649
- GE-HTS (composite Z-score) (OXPHOS gene expression; Conc 20 μM): 0.312
- nucOX (composite Z-score) (nuOXPHOS transcripts; Conc 20 μM): 0.250
- MTT (composite Z-score) ([1]; Conc 20 μM): −1.287
- mitoOX (composite Z-score) (mtOXPHOS transcripts; Conc 20 μM): 0.427
- ΔΨm (composite Z-score) ([2]; Conc 20 μM): −1.837
- cyt c (composite Z-score) (cytochrome c; Conc 20 μM): 1.004
- ROS (composite Z-score) (reactive oxygen species; Conc 20 μM): 0.249

Structure (SMILES): COc1ccc(-c2coc3cc(O)cc(O)c3c2=O)cc1 [biochanin A]
- Viability (composite Z-score) (C2C12 myotubes; Conc 20 μM): 0.987
- GE-HTS (composite Z-score) (OXPHOS gene expression; Conc 20 μM): −0.324
- nucOX (composite Z-score) (nuOXPHOS transcripts; Conc 20 μM): −0.459
- MTT (composite Z-score) ([1]; Conc 20 μM): −0.325
- mitoOX (composite Z-score) (mtOXPHOS transcripts; Conc 20 μM): −0.042
- ΔΨm (composite Z-score) ([2]; Conc 20 μM): 0.033
- cyt c (composite Z-score) (cytochrome c; Conc 20 μM): −0.416
- ROS (composite Z-score) (reactive oxygen species; Conc 20 μM): 0.623

Structure (SMILES): OC(CCN1CCCCC1)(c1ccccc1)C1CC2C=CC1C2 (stereo not drawn) [biperiden]
- Viability (C2C12 myotubes): 0.740
- GE-HTS (OXPHOS gene expression): −0.817
- nucOX (nuOXPHOS transcripts): −0.496
- MTT [1]: −0.886
- mitoOX (mtOXPHOS transcripts): −1.312
- ΔΨm [2]: −0.517
- cyt c (cytochrome c): 0.053
- ROS (reactive oxygen species): 2.725

Structure (SMILES): CC(C)=CCC[C@](C)(O)C1CC=C(C)CC1 (stereo partly drawn) [bisabolol]
- Viability (C2C12 myotubes; [3]): 0.300
- GE-HTS (OXPHOS gene expression; [3]): −0.963
- nucOX (nuOXPHOS transcripts; [3]): −0.983
- MTT [1, 3]: 0.031
- mitoOX (mtOXPHOS transcripts; [3]): −0.690
- ΔΨm [2, 3]: −0.234
- cyt c (cytochrome c; [3]): 0.738
- ROS (reactive oxygen species; [3]): 0.061

Structure (SMILES): CCc1ccc2c(O)c3c(cc2c1C(=O)OC)C(=O)c1c(O)ccc(O)c1C3=O [bisanhydrorutilantinone]
- Viability (C2C12 myotubes; [3]): −0.493
- GE-HTS (OXPHOS gene expression; [3]): −0.727
- nucOX (nuOXPHOS transcripts; [3]): −0.268
- MTT [1, 3]: −1.755
- mitoOX (mtOXPHOS transcripts; [3]): −1.532
- ΔΨm [2, 3]: −2.223
- cyt c (cytochrome c; [3]): 0.148
- ROS (reactive oxygen species; [3]): 0.236

Structure (SMILES): Oc1c(Cl)cc(Cl)cc1Sc1cc(Cl)cc(Cl)c1O [bithionol]
- Viability (C2C12 myotubes; [4]): −2.247
- GE-HTS (OXPHOS gene expression; [4]): −1.531
- nucOX (nuOXPHOS transcripts; [4]): −1.261
- MTT [1, 4]: 0.593
- mitoOX (mtOXPHOS transcripts; [4]): −1.838
- ΔΨm [2, 4]: −2.723
- cyt c (cytochrome c; [4]): −2.613
- ROS (reactive oxygen species; [4]): 1.449

Structure (SMILES): CC(C)C[C@H]1C(=O)N2CCC[C@H]2[C@]2(O)O[C@](NC(=O)[C@@H]3C=C4c5cccc6[nH]c(Br)c(c56)C[C@H]4N(C)C3)(C(C)C)C(=O)N12 [bromocriptine]
- Viability (C2C12 myotubes; [5]): 1.142
- GE-HTS (OXPHOS gene expression; [5]): 0.006
- nucOX (nuOXPHOS transcripts; [5]): 0.199
- MTT [1, 5]: −1.667
- mitoOX (mtOXPHOS transcripts; [5]): −0.322
- ΔΨm [2, 5]: 0.037
- cyt c (cytochrome c; [5]): −0.064
- ROS (reactive oxygen species; [5]): 0.176

Structure (SMILES): Oc1c(Br)cc(Br)c2cccnc12 [broxyquinoline]
- Viability (C2C12 myotubes; [5]): −2.006
- GE-HTS (OXPHOS gene expression; [5]): −0.830
- nucOX (nuOXPHOS transcripts; [5]): −1.095
- MTT [1, 5]: −1.180
- mitoOX (mtOXPHOS transcripts; [5]): −0.157
- ΔΨm [2, 5]: 1.701
- cyt c (cytochrome c; [5]): 0.410
- ROS (reactive oxygen species; [5]): −1.081

Structure (SMILES): COc1cc2c(cc1OC)[C@@]13CCN4CC5=CCO[C@H]6CC(=O)N2[C@H]1[C@H]6[C@H]5C[C@H]43 [brucine]
- Viability (composite Z-score) (C2C12 myotubes; Conc 20 μM): 1.605
- GE-HTS (composite Z-score) (OXPHOS gene expression; Conc 20 μM): −1.106
- nucOX (composite Z-score) (nuOXPHOS transcripts; Conc 20 μM): −1.084
- MTT (composite Z-score) ([1]; Conc 20 μM): −1.270
- mitoOX (composite Z-score) (mtOXPHOS transcripts; Conc 20 μM): −0.887
- ΔΨm (composite Z-score) ([2]; Conc 20 μM): 0.552
- cyt c (composite Z-score) (cytochrome c; Conc 20 μM): 0.660
- ROS (composite Z-score) (reactive oxygen species; Conc 20 μM): 0.930

Structure (SMILES): COc1ccc(-c2cc(=O)c3c(O)cc(O[C@H]4O[C@H](CO[C@@H]5O[C@@H](C)[C@H](O)[C@@H](O)[C@H]5O)[C@@H](O)[C@H](O)[C@H]4O)cc3o2)cc1 [buddleoflavonoloside]
- Viability (composite Z-score) (C2C12 myotubes; Conc 20 μM): 0.169
- GE-HTS (composite Z-score) (OXPHOS gene expression; Conc 20 μM): 0.073
- nucOX (composite Z-score) (nuOXPHOS transcripts; Conc 20 μM): 0.114
- MTT (composite Z-score) ([1]; Conc 20 μM): 0.006
- mitoOX (composite Z-score) (mtOXPHOS transcripts; Conc 20 μM): 0.017
- ΔΨm (composite Z-score) ([2]; Conc 20 μM): 0.050
- cyt c (composite Z-score) (cytochrome c; Conc 20 μM): 0.736
- ROS (composite Z-score) (reactive oxygen species; Conc 20 μM): 0.265

Structure (SMILES): CCCCN1CCCCC1C(=O)Nc1c(C)cccc1C (stereo not drawn) [bupivacaine]
- Viability (C2C12 myotubes; [6]): −0.663
- Viability (C2C12 myotubes; [5]): −1.202
- GE-HTS (OXPHOS gene expression; [6]): −0.227
- GE-HTS (OXPHOS gene expression; [5]): 0.392
- nucOX (nuOXPHOS transcripts; [6]): −0.316
- nucOX (nuOXPHOS transcripts; [5]): 0.548
- MTT [1, 6]: −1.440
- MTT [1, 5]: −0.841
- mitoOX (mtOXPHOS transcripts; [6]): 0.002
- mitoOX (mtOXPHOS transcripts; [5]): 0.009
- ΔΨm [2, 6]: −0.938
- ΔΨm [2, 5]: 0.084
- cyt c (cytochrome c; [6]): −0.058
- cyt c (cytochrome c; [5]): 0.190
- ROS (reactive oxygen species; [6]): 0.545
- ROS (reactive oxygen species; [5]): 0.801

Reference: patent US20090143279A1 (priority 2007, published 2009)
